Tests used:
IL-6 = experiment: UVB-mediated induction of IL-6 in pterygium epithelial cells, sandwich immunoassay of supernatants; assay type: cell-based, human; conditions: for IL-6 production post-radiation (effect in words): 10 μM PD98059, 1 μM SB202190, 1 μM SB203580, 1 μM hydrocortisone
Protocol: (§1) Pterygium-derived epithelial cells (PEC) were seeded at 1×10^6 cells in 100 mm tissue culture dishes (Corning, N.Y.) or at a density of 1.5×10^5 cells per well in 6-well plates (Nunc, Denmark) and grown in the presence of 10% FBS/EMEM. Once cells reached semi-confluence, the medium was aspirated, cells washed three times with sterile PBS, and left in serum-free medium for 16 hrs as previously described (Di Girolamo N., et al. Prog Retin Eye Res. 2004; 23:195-228), (Di Girolamo N., et al., Invest Opthalmol Vis Sci. 2000; 41:671-679), (Di Girolamo N., et al., Invest Opthalmol Vis Sci. 2002; 43:3430-3437), (Nolan T, et al., Am J Pathol. 2003; 162:567-574), (Di Girolamo., et al., Invest Ophthalmol Vis Sci. 2003; 44:4705-4714). In some experiments, cells were pre-incubated with selective inhibitors of ERK1/2, JNK, and p38 MAPKs (Calbiochem, Calif.). These included 10 μM PD98059, 1 μM SB202190, and 1 μM SB203580, respectively. In addition, 1 μM hydrocortisone (Sigma, St Louis, […].) was added to some cells as a broad-spectrum negative regulator of cytokine production.
(§2) To determine whether surface receptors were involved in transmitting the UVB signal, some cells were pre-incubated for 1 hr with 0.1 μM PD153035 (Calbiochem), an inhibitor of the tyrosine kinase activity of the EGFR or with 0.1 μM AG1295 (Calbiochem) an inhibitor of the tyrosine kinase activity of the PDGFR. While in other experiments, cells were pre-treated with RA (0-0.1 μM; Sigma) or IFN-α (0-15,000 U; PBL Biomedical Laboratories, Piscataway, N.J.). This medium was replaced with PBS and monolayers irradiated with 20 mJ/cm^2 of UVB using FL20SE bulbs (Philips, Sydney, Australia) as previously reported (Di Girolamo N., et al. Prog Retin Eye Res. 2004; 23:195-228), (Di Girolamo N., et al., Invest Opthalmol Vis Sci. 2002; 43:3430-3437), (Nolan T, et al., Am J Pathol. 2003; 162:567-574), (Di Girolamo., et al., Invest Ophthalmol Vis Sci. 2003; 44:4705-4714). UVB light intensity was monitored and calibrated prior to each experiment with the aid of a radiometer IL1400A (International Light, Newburyport, Mass.). After each exposure, PEC were rinsed once with PBS and placed in fresh serum-free medium with the respective compounds, then incubated for a further 48 hrs. Supernatants were collected, cleared of any cell debris by centrifugation, and stored frozen in small aliquots at −70° C. The compounds used in these experiments were non-toxic at all doses tested.
(§3) Human IL-6, IL-8, and VEGF (Quantikine™; R&D Systems, Minneapoli, Minn.) were quantified using sandwich immunoassays. Cytokines in supernatants from control (mock irradiated), or UVB-exposed PEC were captured on antibody-coated 96-well plates, and detection performed precisely as directed by the manufacturer. The optical density of the reaction product was read at the appropriate wavelength using a microplate reader (Spectramax™ Plus, Molecular Devices, Sunnyvale, Calif.).
(§4) Cytokine levels in the culture supernatants were expressed as mean±standard deviation. Difference in cytokine level between control and UV treated cells was assessed by one-way analysis of variance, followed by the Newman-Keuls test for multiple comparisons of treatment groups with the control group. A commercial software package (Prism; GraphPad Software, San Diego, Calif.) was used for analysis.

VEGF = experiment: UVB-mediated induction of VEGF in pterygium epithelial cells, sandwich immunoassay of supernatants; assay type: cell-based, human; conditions: for VEGF production: PEC pre-incubated 1 hr with 0.1 μM inhibitor, supernatant after 48 hrs, UVB alone 166.5±11.0 pg/ml; for VEGF production / VEGF production post-radiation (effect in words): 20 mJ/cm^2 UVB; for VEGF production post-radiation (effect in words): 10 μM PD98059, 1 μM SB202190, 1 μM SB203580, 1 μM hydrocortisone
Protocol: as §1, §2, §3, §4

IL-8 = experiment: UVB-mediated induction of IL-8 in pterygium epithelial cells, sandwich immunoassay of supernatants; assay type: cell-based, human; conditions: for IL-8 levels / IL-8 production post-radiation (effect in words): 20 mJ/cm^2 UVB; for IL-8 levels: supernatant after 48 hrs, UVB alone 166.6±22.5 pg/ml; for IL-8 production post-radiation (effect in words): 10 μM PD98059, 1 μM SB202190, 1 μM SB203580, 1 μM hydrocortisone
Protocol: as §1, §2, §3, §4

[1] = topical ocular use; cited from earlier work
pterygium = conditions: retrospective study of 164 patients, pterygium surgery with associated treatment; cited from earlier work
[2] = PEC, single dose of UVB, several concentrations: RA 0-0.1 μM, IFN-α 0-15,000 U

Compound | IL-6 production post-radiation (effect in words) (IL-6; PEC, 20 mJ/cm^2 UVB) | VEGF production post-radiation (effect in words) (VEGF; PEC) | IL-8 production post-radiation (effect in words) (IL-8; PEC) | other results
Cc1cc2ncc(-c3ccccc3)nc2cc1C [AG1295] | – | – | – | IL-6 levels (IL-6; PEC pre-incubated 1 hr with 0.1 μM inhibitor, 20 mJ/cm^2 UVB, supernatant after 48 hrs, UVB alone 356.2±32.1): 217 ± 42 pg/mL; VEGF production (VEGF): 132.7 ± 8.0 pg/mL; IL-8 levels (IL-8; PEC pre-incubated 1 hr with 0.1 μM PD153035 (EGFR inhibitor) or 0.1 μM AG1295 (PDGFR inhibitor)): 174 ± 60.3 pg/mL
C[C@]12CCC(=O)C=C1CC[C@@H]1[C@@H]2[C@@H](O)C[C@@]2(C)[C@H]1CC[C@]2(O)C(=O)CO [Hydrocortisone, hydrocortisone] | near control levels | near control levels | near control levels | –
COc1cccc(-c2cc(=O)c3ccccc3o2)c1N [PD98059] | significantly abrogated | only partially, but significantly reduced | significantly abrogated | –
COc1cc2ncnc(Nc3cccc(Br)c3)c2cc1OC [PD153035] | – | – | – | VEGF production (VEGF): 109.1 ± 1.5 pg/mL; IL-8 levels (IL-8; PEC pre-incubated 1 hr with 0.1 μM inhibitor): 74.4 ± 23.6 pg/mL
Oc1ccc(-c2nc(-c3ccncc3)c(-c3ccc(F)cc3)[nH]2)cc1 [SB202190] | significantly abrogated | only partially, but significantly reduced | significantly abrogated | –
C[S+]([O-])c1ccc(-c2nc(-c3ccncc3)c(-c3ccc(F)cc3)[nH]2)cc1 (stereo not shown) [SB203580] | significantly abrogated | only partially, but significantly reduced | significantly abrogated | –
CO[C@@]12[C@H](COC(N)=O)C3=C(C(=O)C(C)=C(N)C3=O)N1C[C@@H]1N[C@@H]12 [mitomyacin C] | – | – | – | complications [1]: corneoscleral melting, cataract and secondary glaucoma; pterygium regrowth (pterygium): 8.74%
IFN-α | – | – | – | IL-6 protein production (effect in words) (IL-6; [2]): dose-dependently inhibited; UVB-mediated induction of VEGF (effect in words) (VEGF; [2]): no significant inhibitory effect; IL-8 protein production (effect in words) (IL-8; [2]): dose-dependently inhibited
